Assay results: patent publication US5232684A, “Labelled resiniferatoxin, compositions thereof, and methods for using the same” (priority 1990, dated 1993)
Entries after “also recorded” stand apart in the source; their conditions may differ. Read-outs that look alike come from different tables or passages of the source.

What was measured:
[1] = target: T1, capsaicin receptor (rat DRG membranes) (Rattus norvegicus, UniProt O35433); experiment: biochemical; type: binding; details: for activity at 0.2 µM: 10 min, read-out: % of specific [^3H]RTX binding measured in the absence of the tested compound ± SEM
T1 construct: membrane preparations from dorsal root ganglia (DRG) of female Sprague-Dawley rats; from tissue; host or cells: dorsal root ganglia of female Sprague-Dawley rats
Description: (§1) Membrane preparations are obtained from the DRG and Gasser ganglia of female Sprague-Dawley rats (250-300 g); animals are sacrificed by decapitation under ether anesthesia, the ganglia removed and collected into ice-cold disrupting buffer (5 mM KCl, 5.8 mM NaCl, 2 mM MgCl2, 12 mM glucose, 137 mM sucrose, 10 mM HEPES, 5 mM DTT, 2 mM EGTA, pH 7.4). After homogenization with the aid of a Polytron tissue homogenizer, samples are filtered over surgical gauze and then washed twice with the same buffer and stored at -70° C. Particulate fractions are obtained from other rat neural tissues (cerebellum, spinal cord, preoptic region, striatum, substantia nigra) and from DRG of pigs (Mt. Airy Locker Co., Mt. Airy, MD), sheep, cows (kindly provided by Dr. Solomon, USDA, Beltsville, MD), and chickens (Truslow Farms, Chesterton, MD) by a similar procedure.
(§2) The binding assays are carried out in a volume of 250 ul, containing assay buffer (same as the disrupting buffer but omitting DTT and EGTA and including 0.75 mM CaCl2), 26-30 ug of membrane protein and 0.25 mg/ml bovine serum albumin. […] Tubes are kept on ice while the additions are made. The assay mixture is incubated for 10 min at 37° C.; it is then cooled on ice. 150 ul of the mixture is pipetted onto Whatman GF/C or GF/F glass fiber filters presoaked with 10 mg/ml bovine serum albumin in 20 mM Tris-Cl (pH 7.4) and filtered immediately. An aliquot of 50 ul of the mixture is removed to determine total radioactivity. The filters are washed with 100 ml of ice-cold 20 mM Tris-Cl, pH 7 4, containing 0.1 mg/ml bovine serum albumin, and the bound radioactivity is determined by scintillation counting. Non-specific binding is determined in the presence of 100-1000 nM non-radioactive RTX.
(§3) Binding data from saturation experiments using increasing concentrations of hot ligand are analyzed using the collection of computer programs described by McPherson (McPherson, G.A., Analysis of radioligand binding experiments: a collection of computer programs for the IBM PC, J.Pharmacol.Methods, 14 (1985) 213-228).
(§4) Scatchard and Hill transformations are performed by the Equilibrium Binding Data Analysis program referred to as EBDA. Data are further analyzed by the curvilinear regression program LIGAND (Munson, R.J. and Rodbard, D., LIGAND: a versatile computerized approach for characterization of ligand-binding systems, Anal.Biochem, 107 (1980) 220-239).
(§5) RTX binding is also analyzed in the presence of a fixed, low (60 pM or 300 pM) concentration of [^3 H]RTX and increasing concentrations of non-radioactive RTX or other ligand. […] The Ki value for RTX is calculated from the relationship Ki =ID50 -L; the Ki values for other ligands are calculated from the general form of the equation (Cheng, Y.C. and Prusoff, W.H., Relation between the inhibition constant (Ki) and the concentration of inhibitor which causes 50 per cent inhibition (I50) of an enzymatic reaction, Biochem. Pharmacol., 22 (1973) 3099-3108) Ki =IC50 /(1+L/Kd) where L=concentration of labelled ligand and Kd =dissociation constant of radioactive ligand as determined in the saturation experiments using variable concentrations of hot ligand. Comparison of the quality of fit using single and multiple site competition models is performed by the LIGAND program.
[^3 H]RTX binding is examined using membrane preparations from dorsal root ganglia (DRG) of female Sprague-Dawley rats.

[2] = target: T2, capsaicin receptor (pig DRG membranes) (Sus scrofa, UniProt F1RLJ0); experiment: biochemical; type: binding; details: for inhibition of specific [^3H]RTX binding: Table 1, 200 nM or 2 μM; for inhibition of / competition for [^3H]RTX binding (words): biologically effective concentrations, Table 1, 10 μM, 10 µM; for inhibition of [^3H]RTX binding: 30 uM
T2 construct: tissue Mt; Airy Locker Co., Mt; Airy, MD; host or cells: pig dorsal root ganglia
Description: as §1
Subcellular fractions are prepared by a modification of the method of Bastiaensen et al. (Bastiaensen, E., Miserez, B. and De Potter, W., Subcellular fractionation of bovine ganglion stellatum: co-storage of noradrenaline, Met-enkephalin and neuropeptide Y in large `dense-cored` vesicles, Brain Res., 442 (1988) 124-130. ) Briefly: DRG are dissected free from capsule, cut into small pieces with scissors, and then homogenized with a teflon pestle (20 strokes) in ice-cold 0.25 M sucrose/ 20 mM Tris-Cl (pH 7.4) buffer. The homogenate is filtered over surgical gauze; it is then centrifuged for 10 min at 2000 gmax, giving a pellet P1, and again at 10 000 gmax for 15 min giving a pellet P2. The P1 and P2 pellets are saved as nuclear and mitochondrial fractions for binding studies. The resulting supernatant is further centrifuged at 50 000 gmax for 60 min, and then the pellet is harvested as the plasma-membrane enriched microsomal fraction.
as §2, §3, §4
RTX binding is also analyzed in the presence of a fixed, low (60 pM or 300 pM) concentration of [^3 H]RTX and increasing concentrations of non-radioactive RTX or other ligand.

protein kinase C [3] = experiment: [^3H]phorbol 12,13-dibutyrate binding, rat DRG membranes
Source text: The side chain at C20 is essential for the capsaicin-like 25 activity of RTX (Szallasi, A., Sharkey, N.A. and Blumberg, P.M., Structure-activity analysis of resiniferatoxin analogs, Phytotherapy Res., 6: 253-257, 1990).

rats = details: 300 ug/kg RTX s.c.; cited from earlier work
[4] = RTX versus capsaicin, cited from earlier work
[5] = RTX versus capsaicin; cited from earlier work
[6] = system: capsaicin desensitization of sensory fibers; details: cited from earlier work
protein kinase C [7] = experiment: [^3H]PDBu binding, pig DRG membranes; details: read-out: Kd for [^3H]PDBu binding to membrane preparations
[8] = target: T3, capsaicin receptor (rat Gasser ganglia) (Rattus norvegicus, UniProt O35433); experiment: biochemical; type: binding; details: for activity at 30 µM: read-out: % of specific [^3H]RTX binding measured in the absence of the tested compound ± SEM
T3 construct: from tissue; host or cells: Gasser ganglia of female Sprague-Dawley rats
Description: as §1, §2, §3, §4, §5
Gasser ganglia represents the […] homolog of the dorsal root ganglia.

[9] = system: mitochondrial NADH-Coenzyme Q oxidoreductase; details: high capsaicin concentrations; cited from earlier work
[10] = 10 min, pig DRG, 30 μM, read-out: % of specific [^3H]RTX binding measured in the absence of the tested compound ± SEM

T2 sequence (F1RLJ0 1-841): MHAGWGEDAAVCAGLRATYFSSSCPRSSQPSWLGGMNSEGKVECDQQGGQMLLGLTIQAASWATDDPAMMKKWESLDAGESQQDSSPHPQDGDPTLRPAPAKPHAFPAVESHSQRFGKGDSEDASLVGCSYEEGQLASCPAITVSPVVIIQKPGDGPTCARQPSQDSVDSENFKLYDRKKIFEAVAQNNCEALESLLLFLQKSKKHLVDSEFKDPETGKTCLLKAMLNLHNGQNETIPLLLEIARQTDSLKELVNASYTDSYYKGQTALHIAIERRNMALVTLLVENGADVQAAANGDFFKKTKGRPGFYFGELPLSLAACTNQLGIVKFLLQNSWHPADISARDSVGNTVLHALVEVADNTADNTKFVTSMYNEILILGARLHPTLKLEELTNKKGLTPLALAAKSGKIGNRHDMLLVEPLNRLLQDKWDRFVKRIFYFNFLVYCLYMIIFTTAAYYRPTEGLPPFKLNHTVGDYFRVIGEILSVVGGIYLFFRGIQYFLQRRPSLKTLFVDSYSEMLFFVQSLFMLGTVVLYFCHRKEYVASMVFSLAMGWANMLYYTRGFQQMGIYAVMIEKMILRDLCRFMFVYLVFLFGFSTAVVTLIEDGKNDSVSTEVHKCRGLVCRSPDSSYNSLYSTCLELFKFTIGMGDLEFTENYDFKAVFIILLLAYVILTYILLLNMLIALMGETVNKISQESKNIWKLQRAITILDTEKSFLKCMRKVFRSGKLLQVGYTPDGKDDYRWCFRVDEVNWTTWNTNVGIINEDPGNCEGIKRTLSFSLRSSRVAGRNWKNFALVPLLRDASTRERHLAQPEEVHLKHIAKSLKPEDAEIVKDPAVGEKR
T1 sequence (O35433 whole entry): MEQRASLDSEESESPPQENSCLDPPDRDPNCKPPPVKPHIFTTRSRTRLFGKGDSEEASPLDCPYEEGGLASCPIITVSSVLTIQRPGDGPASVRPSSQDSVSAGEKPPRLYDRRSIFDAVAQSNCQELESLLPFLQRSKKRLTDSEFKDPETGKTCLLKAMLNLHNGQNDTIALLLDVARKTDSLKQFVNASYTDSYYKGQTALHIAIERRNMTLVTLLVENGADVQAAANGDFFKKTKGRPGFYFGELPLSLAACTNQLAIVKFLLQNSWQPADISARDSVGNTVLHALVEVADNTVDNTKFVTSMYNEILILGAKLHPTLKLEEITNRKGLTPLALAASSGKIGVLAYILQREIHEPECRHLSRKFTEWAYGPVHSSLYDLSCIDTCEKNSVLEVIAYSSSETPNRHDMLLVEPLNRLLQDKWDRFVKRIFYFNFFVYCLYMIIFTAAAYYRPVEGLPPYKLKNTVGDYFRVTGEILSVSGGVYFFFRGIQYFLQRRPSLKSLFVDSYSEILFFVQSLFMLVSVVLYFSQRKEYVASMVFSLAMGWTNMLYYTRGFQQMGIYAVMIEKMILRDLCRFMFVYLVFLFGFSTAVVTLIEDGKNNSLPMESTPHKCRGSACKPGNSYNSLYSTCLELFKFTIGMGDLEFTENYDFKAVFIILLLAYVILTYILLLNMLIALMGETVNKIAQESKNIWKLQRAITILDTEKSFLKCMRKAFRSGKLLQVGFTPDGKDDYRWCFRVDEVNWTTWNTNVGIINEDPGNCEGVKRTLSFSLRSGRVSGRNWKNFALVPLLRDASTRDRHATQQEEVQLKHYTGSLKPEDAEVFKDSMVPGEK
T3 sequence (O35433 whole entry): as above

## C=C(C)[C@]12C[C@@H](C)[C@@]34O[C@](Cc5ccccc5)(O[C@@H]1[C@@H]3C=C(CO)C[C@]1(O)C(=O)C(C)=C[C@@H]41)O2 [ROA, resiniferonol 9,13,14-orthophenylacetate]
[1]; rat DRG, 200 nM
  activity at 0.2 µM: 106%
[2]; 10 min, pig DRG, 2 μM, read-out: % of specific [^3H]RTX binding measured in the absence of the tested compound ± SEM
  activity at 2 µM: 105 ± 6%
[2]
  inhibition of specific [^3H]RTX binding: inhibited neither

## CCCC(=O)O[C@@H]1[C@@H](C)[C@@]2(O)[C@@H](C=C(CO)C[C@]3(O)C(=O)C(C)=C[C@@H]23)[C@@H]2C(C)(C)[C@]12OC(=O)CCC [PDBu, phorbol 12,13-dibutyrate]
[1]
  activity at 0.2 µM: 106 ± 9%
[2]; 10 min, read-out: % of specific [^3H]RTX binding measured in the absence of the tested compound ± SEM
  activity at 0.2 µM: 100 ± 2%
[2]
  inhibition of specific [^3H]RTX binding: inhibited neither

## C=C(C)[C@]12C[C@@H](C)[C@@]34O[C@](Cc5ccccc5)(O[C@@H]1[C@@H]3C=C(COC(=O)Cc1ccc(O)c(OC)c1)C[C@]1(O)C(=O)C(C)=C[C@@H]41)O2 [RTX, resiniferatoxin]
[1]; rat DRG, 60 pM [^3H]RTX, 30 pM to 3 nM non-radioactive RTX, mean±SEM, 3 determinations, read-out: Ki, competition of [^3H]RTX binding
  Ki: 0.11 ± 0.04 nM
[2]; pig DRG membranes, by 10 min at 37° C.
  loss of specific [^3H]RTX binding after addition of excess non-radioactive RTX: complete loss of specific binding
[2]; pig DRG, mean±SEM, 4 determinations, read-out: Ki, inhibition of [^3H]RTX binding
  Ki: 2.4 ± 0.3 nM
[2]; pig DRG, one site model, read-out: Ki (LIGAND analysis)
  Ki: 2.2 nM
Protein kinase C [3]; rat DRG preparations
  inhibition of specific [^3H]phorbol 12,13-dibutyrate binding to protein kinase C: only at uM concentrations
rats
  time to expression of desensitization: 1 to 4 h
[4]
  fold more potent than capsaicin / difference in potencies for induction of hypothermia or neurogenic inflammation: 10^3 -10^4 fold
[4]; listed as resiniferatoxin
  fold more potent than capsaicin / difference in potencies for induction of hypothermia or neurogenic inflammation: up to 10^4 fold
[5]
  potency for induction of pain relative to capsaicin: comparable in potency

## N[C@@H](Cc1ccc(O)c(O)c1)C(=O)O [L-DOPA]
[2]; pig DRG, 100 uM
  competition for [^3H]RTX binding sites: does not compete

## N.N.N.N.N.N.N.N.N.N.N.N.N.N.[Cl-].[Cl-].[Cl-].[Cl-].[Cl-].[Cl-].[O-2].[O-2].[Ru+3].[Ru+3].[Ru+4] [ruthenium red]
[2]
  inhibition of / competition for [^3H]RTX binding (words): fails to compete
[2]; listed as Ruthenium red
  inhibition of / competition for [^3H]RTX binding (words): fails to inhibit
[2]; pig DRG (by column position), 10 μM, n = 2
  % of specific [^3H]RTX binding measured in the absence of the tested compound ± SEM: 109%
[6]
  effect on (capsaicin) desensitization: block capsaicin desensitization; also recorded: blocks the desensitization

## [^3 H]phorbol 12,13-dibutyrate [[^3 H]PDBu]
Protein kinase C [3]; rat DRG, read-out: Kd for [^3H]PDBu binding to membrane preparations
  Kd: 8.5 nM
Protein kinase C [7]
  Kd: 11.5 nM

## COc1cc(CNC(=O)CCCCCCC(C)C)ccc1O [dihydrocapsaicin]
[2]; pig DRG
  inhibition of [^3H]RTX binding: inhibits to a similar degree as does capsaicin
[2]; pig DRG, 30 μM, 10 min
  % of specific [^3H]RTX binding measured in the absence of the tested compound ± SEM: 33 ± 5%
[8]; rat Gasser ggl, 30 μM
  % of specific [^3H]RTX binding measured in the absence of the tested compound ± SEM: 22%

## CNC[C@H](O)c1ccc(O)c(O)c1 [epinephrine]
[2]
  competition for [^3H]RTX binding sites: does not compete

## COc1cc(CCC(C)=O)ccc1O [zingerone]
[2]; [10]
  activity at 30 µM: 92 ± 7%
[2]; pig DRG
  inhibition of [^3H]RTX binding: does not inhibit or does so more weakly
[8]; rat Gasser ggl, 30 μM
  activity at 30 µM: 111%

## O=C(/C=C/C=C/c1ccc2c(c1)OCO2)N1CCCCC1 [piperine]
[2]; [10]
  activity at 30 µM: 109 ± 2%
[2]; pig DRG
  inhibition of [^3H]RTX binding: does not inhibit or does so more weakly
[8]; rat Gasser ggl, 30 μM
  activity at 30 µM: 118%

## COc1cc(CNC(=O)CCCC/C=C/C(C)C)ccc1O [capsaicin]
[2]
  Ki: 14000 ± 2000 nM
[2]; pig DRG, 30 μM, 10 min
  % of specific [^3H]RTX binding measured in the absence of the tested compound ± SEM: 28 ± 4%
[8]; gasser ganglia membranes, 30 µM
  % of specific [^3H]RTX binding measured in the absence of the tested compound ± SEM: 30 ± 11
[9]
  inhibition of NADH-Coenzyme Q oxidoreductase: inhibited at high capsaicin concentrations

## NCCc1ccc(O)c(O)c1 [dopamine]
[2]
  competition for [^3H]RTX binding sites: does not compete

## NC[C@H](O)c1ccc(O)c(O)c1 [norepinephrine]
[2]; pig DRG, 100 uM
  competition for [^3H]RTX binding sites: does not compete
